Drawing on patent publication US9873709B2 (priority 2013, dated 2018), this text covers IC50 for ten compounds.

This experiment concerns JAK1-dependent STAT6 phosphorylation downstream of IL-13 stimulation in TF-1 human erythroleukemia cells. The experiment in a line: cells. The conditions noted are these: TF-1, read-out: IL-13-pSTAT6 IC50.
By IC50 is commonly meant the midpoint of a concentration-inhibition curve. Regarding `CN1CCN(C(=O)C2CN(C(=O)c3ccc(Nc4nc5c(C6=CCN(C(=O)CCC(F)(F)F)CC6)cccn5n4)cc3)C2)CC1` [Example 2-159, 4,4,4-trifluoro-1-[4-[2-[4-[3-(4-methylpiperazine-1-carbonyl)azetidine-1-carbonyl]anilino]-[1,2,4]triazolo[1,5-a]pyridin-8-yl]-3,6-dihydro-2H-pyridin-1-yl]butan-1-one], the IC50 came to 35.1 nM.

Turning to `CN1CCC(N(C)C(=O)c2ccc(Nc3nc4c(C5=CCN(C(=O)C6CC6(C)C)CC5)cccn4n3)cc2)CC1` (stereo not shown) [Example 2-160, 4-[[8-[1-(2,2-dimethylcyclopropanecarbonyl)-3,6-dihydro-2H-pyridin-4-yl]-[1,2,4]triazolo[1,5-a]pyridin-2-yl]amino]-N-methyl-N-(1-methyl-4-piperidyl)benzamide], the IC50 was 47 nM.

In the case of `CN1CCC(N(C)C(=O)c2ccc(Nc3nc4c(C5=CCN(C(=O)C6C(C)(C)C6(C)C)CC5)cccn4n3)cc2)CC1` [Example 2-161, N-methyl-N-(1-methyl-4-piperidyl)-4-[[8-[1-(2,2,3,3-tetramethylcyclopropanecarbonyl)-3,6-dihydro-2H-pyridin-4-yl]-[1,2,4]triazolo[1,5-a]pyridin-2-yl]amino]benzamide], the IC50 turned out to be 44.2 nM.

For the compound `CN1CCC(N(C)C(=O)c2ccc(Nc3nc4c(C5=CCN(C(=O)CC(F)(F)F)CC5)cccn4n3)cc2)CC1` [Example 2-163, N-methyl-N-(1-methyl-4-piperidyl)-4-[[8-[1-(3,3,3-trifluoropropanoyl)-3,6-dihydro-2H-pyridin-4-yl]-[1,2,4]triazolo[1,5-a]pyridin-2-yl]amino]benzamide], the IC50 amounted to 28.4 nM.

Take `CCOC(=O)N1CC=C(c2cccn3nc(Nc4ccc(C(=O)N5CC(CN)C5)cc4)nc23)CC1` [Example 2-165, ethyl 4-[2-[4-[3-(aminomethyl)azetidine-1-carbonyl]anilino]-[1,2,4]triazolo[1,5-a]pyridin-8-yl]-3,6-dihydro-2H-pyridine-1-carboxylate]: the 50% inhibitory concentration (IC50) was 187 nM.

`CCOC(=O)N1CC=C(c2cccn3nc(Nc4ccc(C(=O)NCCN5CC(C)OC(C)C5)cc4)nc23)CC1` (stereo not shown) [Example 2-167, ethyl 4-[2-[4-[2-(2,6-dimethylmorpholin-4-yl)ethylcarbamoyl]anilino]-[1,2,4]triazolo[1,5-a]pyridin-8-yl]-3,6-dihydro-2H-pyridine-1-carboxylate]: the IC50 was determined as 15.8 nM.

Take `CCOC(=O)N1CC=C(c2cccn3nc(Nc4ccc(C(=O)NC(C)c5cccc(C)n5)cc4)nc23)CC1` (stereo not shown) [Example 2-170, ethyl 4-[2-[4-[1-(6-methyl-2-pyridyl)ethylcarbamoyl]anilino]-[1,2,4]triazolo[1,5-a]pyridin-8-yl]-3,6-dihydro-2H-pyridine-1-carboxylate]: the IC50 came out at 14.8 nM.

Take `CCOC(=O)N1CC=C(c2cccn3nc(Nc4ccc(C(=O)NCCc5ccncc5)cc4)nc23)CC1` [Example 2-172, ethyl 4-[2-[4-[2-(4-pyridyl)ethylcarbamoyl]anilino]-[1,2,4]triazolo[1,5-a]pyridin-8-yl]-3,6-dihydro-2H-pyridine-1-carboxylate]: the IC50 stood at 12 nM.

Consider `CCOC(=O)N1CC=C(c2cccn3nc(Nc4ccc(C(=O)N5CC6(CCN(C)CC6)C5)cc4)nc23)CC1` [Example 2-175, ethyl 4-[2-[4-(7-methyl-2,7-diazaspiro[3.5]nonane-2-carbonyl)anilino]-[1,2,4]triazolo[1,5-a]pyridin-8-yl]-3,6-dihydro-2H-pyridine-1-carboxylate], for which the IC50 was 12.2 nM.

With `CCOC(=O)N1CC=C(c2cccn3nc(Nc4ccc(C(=O)N5CC6(CCCN6C)C5)cc4)nc23)CC1` [Example 2-176, ethyl 4-[2-[4-(5-methyl-2,5-diazaspiro[3.4]octane-2-carbonyl)anilino]-[1,2,4]triazolo[1,5-a]pyridin-8-yl]-3,6-dihydro-2H-pyridine-1-carboxylate], the IC50 was found to be 8.1 nM.
